Measurements: ChEMBL document CHEMBL3991601, “The target landscape of clinical kinase drugs” (Science, 2017)
pKd: −log10 of the molar value. Activity calls are given as the source filed them.

Legend:
[1] = target: T1, ATP-dependent RNA helicase DHX30 (Homo sapiens, UniProt Q7L2E3)
T1 sequence (Q7L2E3 whole entry): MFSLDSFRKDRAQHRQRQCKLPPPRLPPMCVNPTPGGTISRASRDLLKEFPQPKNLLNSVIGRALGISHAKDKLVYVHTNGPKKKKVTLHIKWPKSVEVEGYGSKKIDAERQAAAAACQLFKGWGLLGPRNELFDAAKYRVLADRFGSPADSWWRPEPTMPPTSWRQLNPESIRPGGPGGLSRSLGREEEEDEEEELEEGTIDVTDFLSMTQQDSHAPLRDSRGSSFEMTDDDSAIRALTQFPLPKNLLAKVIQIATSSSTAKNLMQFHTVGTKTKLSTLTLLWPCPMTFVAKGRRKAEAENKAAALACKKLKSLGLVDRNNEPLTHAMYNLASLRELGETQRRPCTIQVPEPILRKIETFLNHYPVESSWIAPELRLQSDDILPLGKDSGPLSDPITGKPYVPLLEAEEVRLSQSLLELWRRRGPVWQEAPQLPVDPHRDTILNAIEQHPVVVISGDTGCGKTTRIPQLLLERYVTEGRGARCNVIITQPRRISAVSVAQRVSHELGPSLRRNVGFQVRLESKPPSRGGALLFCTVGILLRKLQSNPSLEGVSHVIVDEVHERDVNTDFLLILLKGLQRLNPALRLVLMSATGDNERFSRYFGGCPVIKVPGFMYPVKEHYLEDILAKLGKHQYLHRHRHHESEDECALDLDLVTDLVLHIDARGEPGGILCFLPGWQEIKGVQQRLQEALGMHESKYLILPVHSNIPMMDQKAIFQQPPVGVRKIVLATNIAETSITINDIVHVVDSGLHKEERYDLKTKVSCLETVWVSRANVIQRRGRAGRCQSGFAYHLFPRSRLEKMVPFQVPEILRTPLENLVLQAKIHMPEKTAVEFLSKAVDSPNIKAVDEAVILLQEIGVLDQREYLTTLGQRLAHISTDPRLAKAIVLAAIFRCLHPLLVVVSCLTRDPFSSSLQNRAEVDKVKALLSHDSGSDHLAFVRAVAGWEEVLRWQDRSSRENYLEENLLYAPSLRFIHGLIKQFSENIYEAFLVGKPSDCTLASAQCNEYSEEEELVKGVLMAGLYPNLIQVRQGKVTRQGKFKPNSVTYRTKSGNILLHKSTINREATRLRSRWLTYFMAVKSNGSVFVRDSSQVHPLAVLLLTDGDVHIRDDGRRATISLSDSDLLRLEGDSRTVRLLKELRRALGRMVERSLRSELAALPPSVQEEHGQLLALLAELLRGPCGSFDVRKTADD

[2] = target: PAS domain-containing serine/threonine-protein kinase (Homo sapiens, UniProt Q96RG2)
Chain of PAS domain-containing serine/threonine-protein kinase (Q96RG2 whole entry, the tested form may be a part): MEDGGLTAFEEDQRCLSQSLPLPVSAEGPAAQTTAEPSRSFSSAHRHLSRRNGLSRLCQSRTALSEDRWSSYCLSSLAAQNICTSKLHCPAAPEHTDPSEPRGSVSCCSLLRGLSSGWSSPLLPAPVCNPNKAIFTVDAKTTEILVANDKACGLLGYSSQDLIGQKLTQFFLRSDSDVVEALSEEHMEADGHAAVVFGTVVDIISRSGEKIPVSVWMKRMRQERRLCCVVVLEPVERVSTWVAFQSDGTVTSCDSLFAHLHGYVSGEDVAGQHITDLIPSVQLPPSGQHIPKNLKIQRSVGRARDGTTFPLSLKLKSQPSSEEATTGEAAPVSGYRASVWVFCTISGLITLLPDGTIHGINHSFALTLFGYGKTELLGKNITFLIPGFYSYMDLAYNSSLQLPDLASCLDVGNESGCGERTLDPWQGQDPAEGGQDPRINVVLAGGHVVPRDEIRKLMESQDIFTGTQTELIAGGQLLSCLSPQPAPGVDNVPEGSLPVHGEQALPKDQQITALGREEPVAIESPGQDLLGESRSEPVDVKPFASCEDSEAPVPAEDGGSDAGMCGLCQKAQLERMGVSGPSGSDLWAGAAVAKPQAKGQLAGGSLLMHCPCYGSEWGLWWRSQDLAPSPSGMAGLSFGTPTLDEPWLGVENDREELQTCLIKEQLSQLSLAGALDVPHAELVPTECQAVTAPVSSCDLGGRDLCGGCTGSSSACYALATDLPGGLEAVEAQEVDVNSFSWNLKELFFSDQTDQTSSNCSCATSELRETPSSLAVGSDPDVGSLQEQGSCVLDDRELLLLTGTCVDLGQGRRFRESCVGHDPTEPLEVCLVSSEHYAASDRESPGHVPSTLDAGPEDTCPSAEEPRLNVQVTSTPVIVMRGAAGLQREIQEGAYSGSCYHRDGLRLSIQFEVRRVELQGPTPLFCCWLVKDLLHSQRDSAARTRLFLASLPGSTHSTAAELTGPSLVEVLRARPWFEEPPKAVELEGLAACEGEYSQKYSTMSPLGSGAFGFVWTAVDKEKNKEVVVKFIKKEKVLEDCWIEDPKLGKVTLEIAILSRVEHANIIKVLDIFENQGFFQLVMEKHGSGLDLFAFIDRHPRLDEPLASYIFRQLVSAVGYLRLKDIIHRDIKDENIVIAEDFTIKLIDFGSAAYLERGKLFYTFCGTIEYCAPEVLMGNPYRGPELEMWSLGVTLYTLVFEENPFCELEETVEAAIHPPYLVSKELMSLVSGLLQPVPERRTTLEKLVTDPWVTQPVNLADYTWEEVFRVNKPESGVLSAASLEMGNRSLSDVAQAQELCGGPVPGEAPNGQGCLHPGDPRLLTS

[3] = target: G protein-coupled receptor kinase 6 (Homo sapiens, UniProt P43250)
Chain of G protein-coupled receptor kinase 6 (P43250 whole entry): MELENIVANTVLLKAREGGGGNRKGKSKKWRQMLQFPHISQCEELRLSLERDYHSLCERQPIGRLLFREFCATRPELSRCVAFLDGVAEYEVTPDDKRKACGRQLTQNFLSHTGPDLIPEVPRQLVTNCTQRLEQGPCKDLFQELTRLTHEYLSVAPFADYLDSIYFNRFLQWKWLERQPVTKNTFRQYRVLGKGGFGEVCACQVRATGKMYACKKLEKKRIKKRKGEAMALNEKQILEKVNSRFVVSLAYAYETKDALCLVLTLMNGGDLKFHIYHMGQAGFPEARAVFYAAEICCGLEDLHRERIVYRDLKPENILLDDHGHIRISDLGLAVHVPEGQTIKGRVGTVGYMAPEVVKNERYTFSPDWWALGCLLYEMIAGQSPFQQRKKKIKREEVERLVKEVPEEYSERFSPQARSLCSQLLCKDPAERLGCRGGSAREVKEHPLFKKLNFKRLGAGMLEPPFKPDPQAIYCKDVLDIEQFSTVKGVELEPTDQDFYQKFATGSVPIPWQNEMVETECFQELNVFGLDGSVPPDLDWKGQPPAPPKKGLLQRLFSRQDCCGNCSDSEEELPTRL

[4] = target: Phosphatidylethanolamine-binding protein 1 (Homo sapiens, UniProt P30086)
Chain of Phosphatidylethanolamine-binding protein 1 (P30086 whole entry): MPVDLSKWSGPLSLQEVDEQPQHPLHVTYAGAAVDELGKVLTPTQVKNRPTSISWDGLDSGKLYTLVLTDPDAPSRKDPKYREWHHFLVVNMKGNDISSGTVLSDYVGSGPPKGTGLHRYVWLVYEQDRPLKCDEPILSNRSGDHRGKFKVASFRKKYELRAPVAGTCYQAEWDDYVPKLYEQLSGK

[5] = target: T2, Long-chain-fatty-acid--CoA ligase 5 (Homo sapiens, UniProt Q9ULC5)
T2 sequence (Q9ULC5 whole entry): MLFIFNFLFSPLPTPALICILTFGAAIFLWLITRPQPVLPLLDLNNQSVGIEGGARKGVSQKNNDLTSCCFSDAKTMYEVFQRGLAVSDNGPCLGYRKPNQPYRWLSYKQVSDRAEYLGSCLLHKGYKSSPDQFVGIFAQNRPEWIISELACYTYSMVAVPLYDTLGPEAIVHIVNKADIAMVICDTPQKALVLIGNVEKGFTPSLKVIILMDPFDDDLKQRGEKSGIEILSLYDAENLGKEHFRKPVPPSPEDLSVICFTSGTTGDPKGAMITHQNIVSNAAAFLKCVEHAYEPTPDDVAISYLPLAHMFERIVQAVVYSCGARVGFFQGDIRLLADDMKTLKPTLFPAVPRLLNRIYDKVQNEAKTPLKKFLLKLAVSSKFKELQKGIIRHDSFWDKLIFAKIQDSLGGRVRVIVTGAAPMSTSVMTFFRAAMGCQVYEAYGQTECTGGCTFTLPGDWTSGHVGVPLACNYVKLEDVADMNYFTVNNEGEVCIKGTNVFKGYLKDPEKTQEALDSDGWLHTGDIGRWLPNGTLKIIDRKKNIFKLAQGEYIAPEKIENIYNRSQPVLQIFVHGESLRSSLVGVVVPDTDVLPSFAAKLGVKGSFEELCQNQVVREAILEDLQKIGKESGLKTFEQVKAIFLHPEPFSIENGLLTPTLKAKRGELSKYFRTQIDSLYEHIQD

[6] = target: T3, Ephrin type-A receptor 1 (Homo sapiens, UniProt P21709)
T3 sequence (P21709 whole entry): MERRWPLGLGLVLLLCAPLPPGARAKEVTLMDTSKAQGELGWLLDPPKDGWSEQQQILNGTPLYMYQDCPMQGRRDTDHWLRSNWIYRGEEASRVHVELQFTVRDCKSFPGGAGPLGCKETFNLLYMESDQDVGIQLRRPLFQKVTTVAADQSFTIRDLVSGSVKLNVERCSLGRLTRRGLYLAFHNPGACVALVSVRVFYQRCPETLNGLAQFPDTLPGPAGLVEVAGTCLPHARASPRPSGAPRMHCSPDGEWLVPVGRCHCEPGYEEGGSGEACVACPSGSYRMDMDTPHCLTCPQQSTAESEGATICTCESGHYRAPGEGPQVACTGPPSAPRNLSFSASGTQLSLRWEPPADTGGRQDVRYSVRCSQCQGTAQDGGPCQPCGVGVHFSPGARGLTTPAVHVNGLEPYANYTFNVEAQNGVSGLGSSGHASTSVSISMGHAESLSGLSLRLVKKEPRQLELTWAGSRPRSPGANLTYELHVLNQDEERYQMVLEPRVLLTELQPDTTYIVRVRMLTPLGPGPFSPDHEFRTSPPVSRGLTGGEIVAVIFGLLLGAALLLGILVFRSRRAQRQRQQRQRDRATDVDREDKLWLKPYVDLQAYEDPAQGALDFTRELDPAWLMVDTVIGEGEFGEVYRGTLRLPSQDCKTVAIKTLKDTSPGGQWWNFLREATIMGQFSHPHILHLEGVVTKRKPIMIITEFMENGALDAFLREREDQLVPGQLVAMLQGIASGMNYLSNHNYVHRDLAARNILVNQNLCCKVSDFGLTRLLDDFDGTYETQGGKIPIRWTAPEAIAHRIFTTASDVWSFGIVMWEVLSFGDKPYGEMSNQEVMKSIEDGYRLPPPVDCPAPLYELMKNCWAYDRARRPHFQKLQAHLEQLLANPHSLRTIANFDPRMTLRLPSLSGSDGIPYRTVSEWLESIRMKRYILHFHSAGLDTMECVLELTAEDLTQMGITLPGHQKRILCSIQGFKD

[7] = target: Dual specificity testis-specific protein kinase 2 (Homo sapiens, UniProt Q96S53)
Chain of Dual specificity testis-specific protein kinase 2 (Q96S53 whole entry): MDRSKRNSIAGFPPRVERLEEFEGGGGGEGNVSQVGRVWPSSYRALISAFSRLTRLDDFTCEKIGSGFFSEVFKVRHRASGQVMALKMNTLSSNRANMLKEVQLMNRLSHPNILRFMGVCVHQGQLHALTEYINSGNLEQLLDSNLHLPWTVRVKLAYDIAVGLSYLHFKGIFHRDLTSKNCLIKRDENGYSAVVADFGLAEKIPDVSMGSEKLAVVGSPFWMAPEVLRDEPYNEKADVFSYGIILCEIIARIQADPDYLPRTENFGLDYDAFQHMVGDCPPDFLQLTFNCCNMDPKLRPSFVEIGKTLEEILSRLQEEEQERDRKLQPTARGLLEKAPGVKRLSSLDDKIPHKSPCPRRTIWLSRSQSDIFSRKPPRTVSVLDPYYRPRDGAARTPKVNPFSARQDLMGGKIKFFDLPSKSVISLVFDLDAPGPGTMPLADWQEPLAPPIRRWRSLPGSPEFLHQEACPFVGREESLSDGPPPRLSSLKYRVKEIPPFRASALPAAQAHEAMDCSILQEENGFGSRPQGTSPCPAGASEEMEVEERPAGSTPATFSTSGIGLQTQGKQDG
Further: in the data inactive means no Kd found up to 30 µM.

CC[C@H](Nc1ncnc2[nH]cnc12)c1nc2cccc(F)c2c(=O)n1-c1ccccc1 [IDELALISIB]
Kd [1]: > 30 µM (inactive) | Kd [2]: > 30 µM (inactive) | Kd [3]: > 30 µM (inactive) | Kd [4]: > 30 µM (inactive) | Kd [5]: > 30 µM (inactive) | Kd [6]: > 30 µM (inactive) | Kd [7]: > 30 µM (inactive)

C[C@@H]1CN(Cc2ccc(F)cc2)[C@@H](C)CN1C(=O)c1cc2c(C(=O)C(=O)N(C)C)cn(C)c2cc1Cl [TALMAPIMOD]
Kd [1]: > 30 µM (inactive) | Kd [2]: > 30 µM (inactive) | Kd [3]: > 30 µM (inactive) | Kd [4]: > 30 µM (inactive) | Kd [5]: > 30 µM (inactive) | Kd [6]: > 30 µM (inactive) | Kd [7]: > 30 µM (inactive)

Cn1cc(-c2ccc3nnc(C(F)(F)c4ccc5ncccc5c4)n3n2)cn1 [JNJ-38877605]
Kd [1]: > 30 µM (inactive) | Kd [2]: > 30 µM (inactive) | Kd [3]: > 30 µM (inactive) | Kd [4]: > 30 µM (inactive) | Kd [5]: > 30 µM (inactive) | Kd [6]: > 30 µM (inactive) | Kd [7]: > 30 µM (inactive)

CO[C@H]1C[C@@H]2CC[C@@H](C)[C@@](O)(O2)C(=O)C(=O)N2CCCC[C@H]2C(=O)O[C@H]([C@H](C)C[C@@H]2CC[C@@H](OCCO)[C@H](OC)C2)CC(=O)[C@H](C)/C=C(\C)[C@@H](O)[C@@H](OC)C(=O)[C@H](C)C[C@H](C)/C=C/C=C/C=C/1C [EVEROLIMUS]
Kd [1]: > 30 µM (inactive) | Kd [2]: > 30 µM (inactive) | Kd [3]: > 30 µM (inactive) | Kd [4]: > 30 µM (inactive) | Kd [5]: > 30 µM (inactive) | Kd [6]: > 30 µM (inactive) | Kd [7]: > 30 µM (inactive)

Cc1cc(Nc2cc(N3CCN(C)CC3)nc(/C=C/c3ccccc3)n2)n[nH]1 [ENMD-2076]
Kd [1]: > 30 µM (inactive) | Kd [2]: > 30 µM (inactive) | Kd [3]: > 30 µM (inactive) | Kd [4]: > 30 µM (inactive) | Kd [5]: > 30 µM (inactive) | Kd [7]: > 30 µM (inactive)

CNC(=O)c1cc(Oc2ccc(NC(=O)Nc3ccc(Cl)c(C(F)(F)F)c3)c(F)c2)ccn1 [REGORAFENIB]
Kd [1]: > 30 µM (inactive) | Kd [2]: > 30 µM (inactive) | Kd [3]: > 30 µM (inactive) | Kd [4]: > 30 µM (inactive) | Kd [5]: > 30 µM (inactive) | pKd [6]: 8.15 | Kd [7]: > 30 µM (inactive)

COCCNCc1ccc(-c2cc3nccc(Oc4ccc(NC(=S)NC(=O)Cc5ccc(F)cc5)cc4F)c3s2)nc1 [GLESATINIB]
Kd [1]: > 30 µM (inactive) | Kd [2]: > 30 µM (inactive) | Kd [3]: > 30 µM (inactive) | Kd [4]: > 30 µM (inactive) | Kd [5]: > 30 µM (inactive) | Kd [6]: > 30 µM (inactive) | Kd [7]: > 30 µM (inactive)

CC[C@@H]1C(=O)N(C)c2cnc(Nc3ccc(C(=O)N[C@H]4CC[C@H](N5CCN(CC6CC6)CC5)CC4)cc3OC)nc2N1C(C)C [VOLASERTIB]
Kd [1]: > 30 µM (inactive) | Kd [2]: > 30 µM (inactive) | Kd [3]: > 30 µM (inactive) | Kd [4]: > 30 µM (inactive) | Kd [5]: > 30 µM (inactive) | Kd [6]: > 30 µM (inactive) | Kd [7]: > 30 µM (inactive)

CN1CCC(COc2cnc(-c3cccc(Cn4nc(-c5cccc(C#N)c5)ccc4=O)c3)nc2)CC1 [TEPOTINIB]
Kd [1]: > 30 µM (inactive) | Kd [2]: > 30 µM (inactive) | Kd [3]: > 30 µM (inactive) | Kd [4]: > 30 µM (inactive) | Kd [5]: > 30 µM (inactive) | Kd [6]: > 30 µM (inactive) | Kd [7]: > 30 µM (inactive)

Cc1cc2c(F)c(Oc3ncnn4cc(OC[C@@H](C)OC(=O)[C@H](C)N)c(C)c34)ccc2[nH]1 [BRIVANIB ALANINATE]
Kd [1]: > 30 µM (inactive) | Kd [2]: > 30 µM (inactive) | Kd [3]: > 30 µM (inactive) | Kd [4]: > 30 µM (inactive) | Kd [5]: > 30 µM (inactive) | Kd [6]: > 30 µM (inactive) | Kd [7]: > 30 µM (inactive)

Cc1cc([C@@H](C)Nc2ccccc2C(=O)O)c2nc(N3CCOCC3)cc(=O)n2c1 [AZD-6482]
Kd [1]: > 30 µM (inactive) | Kd [2]: > 30 µM (inactive) | Kd [3]: > 30 µM (inactive) | Kd [4]: > 30 µM (inactive) | Kd [5]: > 30 µM (inactive) | Kd [6]: > 30 µM (inactive) | Kd [7]: > 30 µM (inactive)

Cc1c(F)cc(C(=O)NC2CC2)cc1-c1ccc(C(=O)NCC(C)(C)C)cn1 [LOSMAPIMOD]
Kd [1]: > 30 µM (inactive) | Kd [2]: > 30 µM (inactive) | Kd [3]: > 30 µM (inactive) | pKd [5]: 5.77 | Kd [6]: > 30 µM (inactive) | Kd [7]: > 30 µM (inactive)
